Laboratory results as given in patent US5912258A, “Thiadiazoleamide derivative and anti-ulcer drug” (Shiseido Co., Ltd., priority 1998, dated 1999).

What was measured:
stress ulcer formation = assay: WIS: Restraint and Water Immersion Stress-Induced Ulcer Inhibition Test; type: in vivo, Male Crj:SD or Slc:SD rats; settings: for WIS: ulcer formation inhibitory rate: rat, 100 mg/kg orally, 7 hours water immersion stress
Protocol: WIS: Restraint and Water Immersion Stress-Induced Ulcer Inhibition Test (i) Meaning The degree of inhibition of the stress ulcer formation is tested. (ii) Method Male Crj:SD or Slc:SD rats (6 to 7-weeek-old) were fasted overnight, but allowed free access to water. Each group has 5 to 8 of these rats. The sample compound was dissolved or suspended in an aqueous solution of 0.3% sodium carboxymethylcellulose or 0.05% Tween 80 and then was orally administered (100 mg/10 ml/kg). To a control group, the vehicle was administered. 10 minutes later, the rats were placed in a stress cage and immersed to the level of xiphoid process in a water bath (21° C.) for 7 hours. At the end of the stress, the rats were sacrificed by inhalation of ether or carbon dioxide. Then, the stomach of each was removed, inflated by injecting 10 ml of 5% formalin neutral buffer solution, and immersed in 1% formalin neutral buffer solution for 30 minutes or more to be fixed. The stomach was incised along the greater curvature and then the length of each erosion in the glandular portion was determined under dissecting microscope. The sum of the length of erosions per stomach was defined as ulcer index (UI). (iii) Judgment Standard […]

[1] = tested on: isolated gastric fundic gland; assay: CAP: Acid Secretion Inhibition Test in vitro ([^14 C]-aminopyrine uptake); type: cell-based, male Japanese White rabbit; settings: rabbit isolated gastric fundic gland, 10^-5 M, histamine 10^-5 M; for inhibition at 10 µM: Oryctolagus cuniculus, read-out: CAP: Acid secretion inhibitory rate
Protocol: CAP: Acid Secretion Inhibition Test in vitro (i) Meaning The acid secretion inhibitory activity in a cell level is studied. It can also be used for studying the mechanism of the effect. (ii) Method (ii)-(a) Preparation of isolated gastric gland suspension First, an isolated gastric fundic gland sample was prepared. Namely, a male Japanese White rabbit (2.5 to 3 kg) was anesthetized to death with Nembutal™ and then the abdomen was incised. Immediately thereafter, the stomach was removed and, after its pyloric and cardiac antrum were severed, incised along its greater curvature into two sheets. The gastric contents adhering to the mucosal surface was washed out with ice-cooled PBS (-) and then carefully washed therein. The gastric wall was spread on a cork board with its mucosal surface facing up and the feed and mucus thereon were completely removed with sterile gauze. The mucosa was separated therefrom by a spatula and then collected in ice-cooled PBS (-). After being washed twice with PBS (-), the mucosa was minced into 2-3 mm^3 pieces by scissors. These pieces were further washed twice with a nutrient solution. The nutrient solution comprises 132.4 mM of NaCl, 5.4 mM of KCl, 5 mM of Na2 HPO4 ·12H2 O, 1 mM of NaH2 PO4 ·2H2 O, 1.2 mM of MgSO4, 1 mM of CaCl2, 25 mM of HEPES, 2 mg/ml of glucose, and 1 mg/ml of BSA. Into 70 ml of the nutrient solution containing 1 mg/ml of collagenase, minced mucosal pieces were dispersed and intensely stirred in a conical flask with a stirrer at 37° C. for 40 to 60 minutes. […] The nutrient solution was added to the reaction solution so as to attain the total amount of about 200 ml. After being filtered through a mesh, the suspension was divisionally introduced into 50 ml centrifuge tubes and left for 15 minutes such that gastric fundic gland was deposited. The supernatant was repeatedly removed by an aspirator, dispersed in the nutrient solution, and then left such that the gastric fundic gland was washed three times. At this time, without using a pipette, the suspension was alternately introduced into two centrifuge tubes so as to effect dispersion. The number of cells was counted under microscope and adjusted to 1.6×10^6 cells/ml. (ii)-(b) [^14 C]-aminopyrine uptake test Then [^14 C]-aminopyrine uptake test was performed. After an Eppendorf tube was weighed, 10 μl (final concentration: 10^-5 M) of histamine dissolved in the above-mentioned nutrient solution, 10 μl (final concentration: 10 ^-5 M) of the test compound dissolved in DMSO, and 10 μl (final concentration: 0.05 μCi/ml) of [^14 C]-aminopyrine diluted with the nutrient solution were introduced therein and then 970 μl of the isolated gastric fundic gland suspension prepared above were added thereto. Subsequently, this mixture was shaken at 37° C. for 40 minutes at 125 cycles/minute. After being centrifuged for 30 minutes 200 μl of its supernatant was collected into a mini-vial, while the rest was removed by an aspirator. The gland pellet was completely dried as the tube with its lid being opened was kept for one night in a drying oven at 80° C. and then the weight was determined at room temperature. Then 100 μl of 1N KOH was added thereto an the tube with its lid being closed was treated at 60° C. for 1 to 2 hours so as to dissolve the pellet. Then, the contents thereof were transferred to a mini-vial. Into the mini-vial containing the supernatant or gland pellet, 4 ml of Atomlite™ was added and then the radioactivity was measured by a liquid scintillation counter. Here, after the radioactivity of the gland pellet was corrected by using a sample in which 20 mM of NaSCN was added so as to cancel the hydrogen ion concentration gradient, the integration ratio of aminopyrine specifically trapped by the gland pellet was calculated. This experiment was performed in duplicate. (ii)-(c) Calculation of the accumulation rate of aminopyrine Here, its principle will be briefly explained. […]

[2] = tested on: gastric corpus mucosa cells; assay: MTT: Cell Damaging and Protecting Effect Test; type: cell-based, male Japanese White rabbit; settings: rabbit gastric mucosa cells, 10^-4 M, 4 hours; smaller value is better; 100 µM
Text: (§1) MTT: Cell Damaging and Protecting Effect Test
(§2) It is confirmed that there is no toxicity in cell level. Those having toxicity in cell level are inappropriate as an anti-ulcer drug.
(§3) A male Japanese White rabbit (2.5 to 3 kg) was anesthetized to death by Nembutal™ and, immediately thereafter, its stomach was removed. The greater curvature of the stomach was incised so as to remove the stomach contents therefrom. After the mucosal surface was washed with HBSS (Hank's Balanced Salt Solution), the stomach in ice-cooled HBSS was transferred to a laboratory. Then, after the pyloric antrum was removed, the gastric corpus mucosa was separated by a spatula and then minced into 2 to 3 mm pieces in BME (Basal Medium Eagle). Thereafter, these pieces were shaken at 120 to 130 cycles/minute for 15 minutes at 37° C. in BME 60 ml containing 280 U/ml of dispase and 30 to 50 U/mil of collagenase. Here, the concentration of collagenase was appropriately changed for each lot in view of the state of cells. The pieces were washed twice with EBSS (Earle's Balanced Salt Solution) containing 1 mM of EDTA and then shaken in MEM (Minimum Essential Medium) containing 1 mM of EDTA at 37° C. for 5 minutes. Subsequently, they were shaken in the dispase and collagenase having the same concentrations as those mentioned above for 15 minutes so as to remove the supernatant and then further shaken at 37° C. for 50 to 60 minutes at 120 to 130 cycles/minute. Then, after being washed twice with HBSS, Ham F12 containing 2% of Ultrocer G™ was used to attain the concentration of 1×10^6 cells/ml. Thus formed suspension was dispensed in each well of a 96-well plate by 200 μl. The plate was incubated in the atmosphere composed of 5% CO2 and 95% air at 37° C. for three days so as to attain a confluent state and then subjected to MTT assay.
(§4) The sample compound was dissolved in DMSO so as to attain a concentration of 10^-2 M and then diluted with HBSS containing 2% of Ultrocer G™ so as to attain a final concentration of 10^-4 M. To each group, which 8 wells were used for, 10 μl of MTT reagent was added immediately after 100 μl of the medium in each well was exchanged for same volume of the resulting solution of the sample compound. After being incubated in an atmosphere composed of 5% CO2 and 95% air at 37° C. for 4 hours, thus formed solution was centrifuged and then its supernatant was discarded. Subsequently, 100 μl of 100% ethanol was added to the residue so as to dissolve MTT formazan. Then, the absorbance (OD: 570 to 630) was measured by a microplate reader. This method utilizes a phenomenon in which MTT is changed to MTT formazan only by mitochondria of living cells so as to change color.
(§5) The cell damaging or cell protecting effect of the sample compound at the final concentration of 10^-4 M was expressed as cell damaging rate (%) as follows:
(§6) cell damaging rate (%)={1-(absorbance in sample group/absorbance in control group)}×100
(§7) Accordingly, the smaller value is better in the cell damaging rate.

[3] = MTT: Cell Damaging and Protecting Effect Test; type: cell-based, male Japanese White rabbit; settings: rabbit, gastric mucosa cells, 10^-4 M, smaller value is better, read-out: MTT: cell damaging rate
Text: as §1, §2, §3, §4, §5, §6, §7

CC(C)c1ccc(C(=O)Nc2nnc(SCCN(C(C)C)C(C)C)s2)cc1.Cl [Example 3, 2-(4-isopropylbenzoyl)amino-5-diisopropylaminoethylthio-1,3,4-thiadiazole hydrochloride]
WIS: ulcer formation inhibitory rate (stress ulcer formation): 96%
CAP: Acid secretion inhibitory rate [1]: 104%
MTT: cell damaging rate [2]: -75%

CC(C)N(CCSc1nnc(NC(=O)c2ccc(C(C)(C)C)cc2)s1)C(C)C [Example 5, 2-(4-tert-butylbenzoyl)amino-5-diisopropylaminoethylthio-1,3,4-thiadiazole]
WIS: ulcer formation inhibitory rate (stress ulcer formation): 63%
inhibition at 10 µM [1]: 100%
cytotoxicity at 4 h, 100 µM [3]: -19%

CCN(CC)CCSc1nnc(NC(=O)c2cc(C(C)(C)C)cc(C(C)(C)C)c2)s1 [Example 6, 2-(3,5-di-tert-butylbenzoyl)amino-5-diethylaminoethylthio-1,3,4-thiadiazol]
anti-ulcer effect (in words) (stress ulcer formation; WIS): sufficient effects
WIS: ulcer formation inhibitory rate (stress ulcer formation): 81%
inhibition at 10 µM [1]: 100%
cytotoxicity at 4 h, 100 µM [3]: 58%

CCN(CC)CCSc1nnc(NC(=O)c2ccc(OC(C)C)cc2)s1 [Example 7, 2-(4-isopropyloxybenzoyl)amino-5-diethylaminoethylthio-1,3,4-thiadiazole]
WIS: ulcer formation inhibitory rate (stress ulcer formation): 76%
inhibition at 10 µM [1]: 97%
cytotoxicity at 4 h, 100 µM [3]: 46%

CCN(CC)CCSc1nnc(NC(=O)c2ccc(OC(C)(C)C)cc2)s1 [Example 8, 2-(4-tert-butoxybenzoyl)amino-5-diethylaminoethylthio-1,3,4-thiadiazole]
WIS: ulcer formation inhibitory rate (stress ulcer formation): 66%
inhibition at 10 µM [1]: 99%
cytotoxicity at 4 h, 100 µM [3]: -11%

CCN(CC)CCSc1nnc(NC(=O)c2ccc(NC(C)(C)C)cc2)s1 [Example 9, 2-(4-tert-butyaminobenzoyl)amino-5-diethylaminoethylthio-1,3,4-thiadiazole]
WIS: ulcer formation inhibitory rate (stress ulcer formation): 51%
inhibition at 10 µM [1]: 2%
cytotoxicity at 4 h, 100 µM [3]: -107%

CCN(CC)CCCSc1nnc(NC(=O)c2ccc(OC/C=C(\C)CCC=C(C)C)cc2)s1 [Example 11, 2-(4-geranyloxybenzoyl)amino-5-diethylaminopropylthio-1,3,4-thiadiazole]
WIS: ulcer formation inhibitory rate (stress ulcer formation): 65%
inhibition at 10 µM [1]: 100%
cytotoxicity at 4 h, 100 µM [3]: 48%

CC(C)=CCC/C(C)=C/COc1ccc(C(=O)Nc2nnc(SCCCN3CCCCC3)s2)cc1 [Example 13, 2-(4-geranyloxybenzoyl)amino-5-piperidinopropylthio-1,3,4-thiadiazole]
WIS: ulcer formation inhibitory rate (stress ulcer formation): 51%
inhibition at 10 µM [1]: 100%
cytotoxicity at 4 h, 100 µM [3]: 41%

CCCSc1nnc(NC(=O)c2ccc(OC/C=C(\C)CCC=C(C)C)cc2)s1 [Example 16, 2-(4-geranyloxybenzoyl)amino-5-propylthio-1,3,4-thiadiazole]
WIS: ulcer formation inhibitory rate (stress ulcer formation): 53%
cytotoxicity at 4 h, 100 µM [3]: 14%

CC(C)=CCC/C(C)=C/COc1ccc(C(=O)Nc2nnc(SCC(C)C)s2)cc1 [Example 17, 2-(4-geranyloxybenzoyl)amino-5-isobutylthio-1,3,4-thiadiazole]
WIS: ulcer formation inhibitory rate (stress ulcer formation): 46%
cytotoxicity at 4 h, 100 µM [3]: -4%

CC(C)=CCC/C(C)=C/COc1ccc(C(=O)Nc2nnc(SCc3ccccc3)s2)cc1 [Example 18, 2-(4-geranyloxybenzoyl)amino-5-benzylthio-1,3,4-thiadiazole]
WIS: ulcer formation inhibitory rate (stress ulcer formation): 32%
cytotoxicity at 4 h, 100 µM [3]: 18%
